The record followed here is ChEMBL document CHEMBL3046595, “Novel furoxan NO-donor pemetrexed derivatives: design, synthesis, and preliminary biological evaluation” (2009).

What all share (type): functional
Assay [1] deals with SMMC-7721. Description: Cytotoxicity against Homo sapiens (human) SMMC7721 cells at 0.1 x 10^-6 mol/L after 48 hr by MTT assay. The conditions noted are these: SMMC-7721, 48 h.
Assay [2] has as its system BGC-823. Description: Cytotoxicity against Homo sapiens (human) BGC823 cells at 0.1 x 10^-6 mol/L after 48 hr by MTT assay. The note with it: BGC-823, 48 h. (In general: Formazan colour is commonly taken as a measure of viable cells.)
Assay [3] deals with SMMC-7721. Description: Cytotoxicity against Homo sapiens (human) SMMC7721 cells at 10 x 10^-6 mol/L after 48 hr by MTT assay. The conditions noted are these: SMMC-7721, 48 h.
Assay [4] relates to HL-60. As to the kind of experiment: Cytotoxicity against Homo sapiens (human) HL60 cells at 1 x 10^-6 mol/L after 48 hr by MTT assay. The conditions noted are these: HL-60, 48 h.
The subject of assay [5] is A549. As to the kind of experiment: Cytotoxicity against Homo sapiens (human) A549 cells at 10 x 10^-6 mol/L after 48 hr by MTT assay. The conditions noted are these: A549, 48 h.
For assay [6], the system named is HL-60. Description: Cytotoxicity against Homo sapiens (human) HL60 cells at 10 x 10^-6 mol/L after 48 hr by MTT assay. The conditions noted are these: HL-60, 48 h.
Assay [7] relates to BGC-823. As to the kind of experiment: Cytotoxicity against Homo sapiens (human) BGC823 cells at 1 x 10^-6 mol/L after 48 hr by MTT assay. The conditions noted are these: BGC-823, 48 h.
Assay [8] deals with SMMC-7721. As to the kind of experiment: Cytotoxicity against Homo sapiens (human) SMMC7721 cells at 1 x 10^-6 mol/L after 48 hr by MTT assay. The conditions noted are these: SMMC-7721, 48 h.
Assay [9] deals with A549. As to the kind of experiment: Cytotoxicity against Homo sapiens (human) A549 cells at 1 x 10^-6 mol/L after 48 hr by MTT assay. The note with it: A549, 48 h.
Assay [10] has as its system A549. As to the kind of experiment: Cytotoxicity against Homo sapiens (human) A549 cells at 0.1 x 10^-6 mol/L after 48 hr by MTT assay. The conditions noted are these: A549, 48 h.
Assay [11] has as its system HL-60. As to the kind of experiment: Cytotoxicity against Homo sapiens (human) HL60 cells at 0.1 x 10^-6 mol/L after 48 hr by MTT assay. The conditions noted are these: HL-60, 48 h.
Assay [12] has as its system BGC-823. Description: Cytotoxicity against Homo sapiens (human) BGC823 cells at 10 x 10^-6 mol/L after 48 hr by MTT assay. The conditions noted are these: BGC-823, 48 h.

For orientation: inhibition means the change of the read-out against control, counted positive when it falls. `CCOC(=O)[C@H](CCC(=O)OCC#CCOc1no[n+]([O-])c1S(=O)(=O)c1ccccc1)NC(=O)c1ccc(CCc2c[nH]c3[nH]c(N)nc(=O)c23)cc1`: the inhibition at 0.1 µM in the assay on SMMC-7721 [1], in the assay on BGC-823 [2], in the assay on A549 [10] and in the assay with HL-60 [11] was below 50% throughout. Further, the inhibition at 10 µM is below 50% with SMMC-7721 [3], below 50% in the assay on A549 [5] and 50% with HL-60 [6]. For the same compound, the inhibition at 1 µM with HL-60 [4] was above 80%; in the assay with BGC-823 [7], 50%; in the assay with SMMC-7721 [8], 50%; with A549 [9], below 50%.

For the compound `CCOC(=O)[C@H](CCC(=O)OCCOc1no[n+]([O-])c1S(=O)(=O)c1ccccc1)NC(=O)c1ccc(CCc2c[nH]c3[nH]c(N)nc(=O)c23)cc1`, the inhibition at 0.1 µM in the assay with SMMC-7721 [1], with BGC-823 [2], in the assay with A549 [10] and in the assay on HL-60 [11] was below 50% each time. The inhibition at 10 µM with SMMC-7721 [3], in the assay with A549 [5], in the assay on HL-60 [6] and in the assay with BGC-823 [12] was below 50% each time. Also, the inhibition at 1 µM was 50% in the assay with HL-60 [4], below 50% in the assay with BGC-823 [7], below 50% with SMMC-7721 [8] and below 50% in the assay on A549 [9].

Regarding `Nc1nc2[nH]cc(CCc3ccc(C(=O)N[C@@H](CCC(=O)O)C(=O)O)cc3)c2c(=O)[nH]1` [PEMETREXED DISODIUM], the inhibition at 0.1 µM was below 50% in the assay with SMMC-7721 [1], below 50% in the assay on BGC-823 [2], below 50% in the assay on A549 [10] and 50% with HL-60 [11]. Further, the inhibition at 10 µM with SMMC-7721 [3] is below 50%; with A549 [5], below 50%; in the assay on HL-60 [6], above 80%; in the assay with BGC-823 [12], 50%. Besides, the inhibition at 1 µM was above 80% with HL-60 [4], below 50% with BGC-823 [7], below 50% in the assay on SMMC-7721 [8] and below 50% in the assay with A549 [9].

Consider `CCOC(=O)[C@H](CCC(=O)OC(C)COc1no[n+]([O-])c1S(=O)(=O)c1ccccc1)NC(=O)c1ccc(CCc2c[nH]c3[nH]c(N)nc(=O)c23)cc1` (stereo partly drawn), for which the inhibition at 0.1 µM in the assay on SMMC-7721 [1] is below 50%; in the assay with BGC-823 [2], below 50%; in the assay with A549 [10] it was below 50%; in the assay with HL-60 [11] it was above 80%. In addition, the inhibition at 10 µM with SMMC-7721 [3], in the assay on A549 [5], in the assay with HL-60 [6] and in the assay on BGC-823 [12] was below 50% each time. Moreover, the inhibition at 1 µM is above 80% in the assay with HL-60 [4], above 80% in the assay on BGC-823 [7], below 50% in the assay with SMMC-7721 [8] and below 50% in the assay with A549 [9].

Turning to `CCOC(=O)[C@H](CCC(=O)OCCCCCCOc1no[n+]([O-])c1S(=O)(=O)c1ccccc1)NC(=O)c1ccc(CCc2c[nH]c3[nH]c(N)nc(=O)c23)cc1`, the inhibition at 0.1 µM in the assay with SMMC-7721 [1], in the assay on BGC-823 [2], with A549 [10] and in the assay with HL-60 [11] was below 50% in each case. Besides, the inhibition at 10 µM with SMMC-7721 [3], with A549 [5], with HL-60 [6] and with BGC-823 [12] was below 50% in each case. For the same compound, the inhibition at 1 µM with HL-60 [4] was above 80%; in the assay on BGC-823 [7] it was 50%; in the assay on SMMC-7721 [8] it was above 80%; in the assay on A549 [9], below 50%.

With `CCOC(=O)[C@H](CCC(=O)OCCCCOc1no[n+]([O-])c1S(=O)(=O)c1ccccc1)NC(=O)c1ccc(CCc2c[nH]c3[nH]c(N)nc(=O)c23)cc1`, the inhibition at 0.1 µM is below 50% in the assay with SMMC-7721 [1], below 50% in the assay on BGC-823 [2], below 50% in the assay on A549 [10] and 50% with HL-60 [11]. For the same compound, the inhibition at 10 µM with SMMC-7721 [3], in the assay with A549 [5], in the assay with HL-60 [6] and with BGC-823 [12] was below 50% each time. Moreover, the inhibition at 1 µM is 50% with HL-60 [4], above 80% with BGC-823 [7], above 80% in the assay on SMMC-7721 [8] and below 50% with A549 [9].

For the compound `CCOC(=O)[C@H](CCC(=O)OCCCCCOc1no[n+]([O-])c1S(=O)(=O)c1ccccc1)NC(=O)c1ccc(CCc2c[nH]c3[nH]c(N)nc(=O)c23)cc1`, the inhibition at 0.1 µM in the assay on SMMC-7721 [1] is below 50%; with BGC-823 [2] it was 50%; in the assay on A549 [10] it was below 50%; in the assay with HL-60 [11], above 80%. For the same compound, the inhibition at 10 µM with SMMC-7721 [3], in the assay on A549 [5], in the assay with HL-60 [6] and in the assay with BGC-823 [12] was below 50% throughout. For the same compound, the inhibition at 1 µM in the assay with HL-60 [4] was above 80%; in the assay on BGC-823 [7], 50%; with SMMC-7721 [8], below 50%; with A549 [9], 50%.

For the compound `CCOC(=O)[C@H](CCC(=O)OCCOCCOc1no[n+]([O-])c1S(=O)(=O)c1ccccc1)NC(=O)c1ccc(CCc2c[nH]c3[nH]c(N)nc(=O)c23)cc1`, the inhibition at 0.1 µM with SMMC-7721 [1], in the assay on BGC-823 [2], with A549 [10] and in the assay with HL-60 [11] was below 50% throughout. Also, the inhibition at 1 µM with HL-60 [4] is above 80%; with BGC-823 [7], below 50%; in the assay on SMMC-7721 [8], below 50%; in the assay on A549 [9], below 50%.

As for `CCOC(=O)[C@H](CCC(=O)OCCCOc1no[n+]([O-])c1S(=O)(=O)c1ccccc1)NC(=O)c1ccc(CCc2c[nH]c3[nH]c(N)nc(=O)c23)cc1`, the inhibition at 0.1 µM with SMMC-7721 [1], with BGC-823 [2], in the assay with A549 [10] and with HL-60 [11] was below 50% in each case. Also, the inhibition at 10 µM in the assay on SMMC-7721 [3], in the assay on A549 [5], in the assay on HL-60 [6] and in the assay with BGC-823 [12] was below 50% in each case. Moreover, the inhibition at 1 µM in the assay on HL-60 [4] was 50%; in the assay with BGC-823 [7], below 50%; in the assay on SMMC-7721 [8], below 50%; with A549 [9] it was below 50%.
